Test results reported in patent US20090317373A1, “Inhibition of the Anti-FVIII Immune Response” (Institut National De La Sante Et De La Recherche Medicale, priority 2005, published 2009).

Columns and labels:
[1] = tested on: human DCs derived from monocytes; assay: In vitro internalization of fluorescent ligands by human DCs derived from monocytes (flow cytometry); assay type: cell-based
Protocol: DCs were prepared from monocytes as described previously (29) with a change in the culture media. Briefly, mononucleated cells were isolated from heparinized leukoplatelet layers (“buffy coats”) from healthy adult donors by adhesion on plastic cell culture dishes in RPMI 1640 medium supplemented with 10% human AB serum, glutamine and antibiotics for 60 minutes. Non-adhering cells were removed by 3 gentle washings with the medium. The adhering monocytes were cultured in X-VIVO 15 medium (Cambrex Bio Sciences, Paris, France) supplemented with 1% human AB serum and antibiotics and in the presence of 500 IU/ml of recombinant human interleukin-4 (rhIL-4), R&D Systems (Lille, France) and 1,000 IU/ml of recombinant human granulocyte macrophage colony-stimulating factor (rhGM-CSF), Immunotools (Friesoythe, Germany). Half of the medium, comprising all the supplements, was replaced every two days. After culture for 5 days, the non-adhering cells and those with little adhesion, corresponding to the fraction enriched in DC, were harvested, washed and used for subsequent experiments.
Whole recombinant human FVIII (1,000 IU, Kogenate, Bayer) or B domain-deleted recombinant human FVIII (FVIII-BDD) (1,000 IU, Refacto, Wyeth) were solubilized in water and dialyzed against bicarbonate buffer (pH 9.2) containing CaCl2, 5 mM at 4° C., followed by coupling to fluorescein 5-isothiocyanate (isomer I, Sigma-Aldrich, Saint Quentin Fallavier, France) for 7-8 hours at 4° C. The labelled FVIII was then dialyzed against RPMI 1640 medium to remove non-coupled FITC. The FVIII-FITC was quantified by the Bradford method using bovine serum albumin as the standard.
The DCs obtained in Example 1 (0.4×10^5 cells/well of a 96-well plate with 100 μl/well) were incubated with various doses (0.029, 0.057, 0.143 and 0.358 μM) of fluorescent conjugated ligands (FVIII-FITC, BDD-FVIII-FITC) obtained in Example 2 in X-VIVO medium for 0, 15, 60 and 120 min at 4° C. or at 37° C. After the incubation period, the cells were washed with cold PBS and analyzed by flow cytometry. To investigate the involvement of receptors in the internalization, the cells were preincubated for 30 min at 37° C. with […] and 1 mg/ml of mannan (Sigma-Aldrich, Saint Quentin Fallavier, France) before the addition of ligands conjugated to fluorescein. In addition to FVIII-FITC and FVIII-BDD-FITC, human α2-macroglobulin-MA (α2M) conjugated to FITC from Biomac (Leipzig, Germany), dextran-FITC (molecular weight 40,000) from Molecular Probes (Leiden, The Netherlands) and Lucifer yellow (LY-CH) from Sigma-Aldrich were used. The investigation of the internalization of FVIII was also carried out in the presence of 20 μg/ml of anti-mannose receptor monoclonal antibody (PAM-1, isotype IgG1) or anti-DC-SIGN monoclonal antibody ((AZN-D1, isotype IgG1) or mouse IgGλ,k conjugated to PE-Cy (BD Pharmingen, France). To investigate whether DC-SIGN is involved in the endocytosis of FVIII, the B lymphocyte line HD-420 transformed by wild-type EBV and transfected with DC-SIGN or not transfected was incubated with various concentrations of FVIII-FITC (0, 0.036, 0.072 and 0.143 μM) for 2 hours in RPMI 1640 medium supplemented with 10% FCS (foetal calf serum) and antibiotics. The analysis was carried out as for the DCs.

[2] = tested on: D9E9 (T cell clone specific for FVIII); assay: In vitro activation of FVIII-specific T cell clone D9E9 (IFN-gamma production); assay type: cell-based, human; settings: antigen presented by DCs; IFNγ production; FIG. 4b
Protocol: After washing, the DCs of Example 1 were resuspended in DMEM:F12 (1:1) medium containing 10% FCS and 10,000 DCs were introduced into each well of a 96-well cell culture plate with a round base. After incubation with mannan (1 mg/ml) in each well for 30 min, the DCs were cultured with 5,000 D9E9 (T cell clone specific for FVIII) in DMEM:F12 (1:1) medium containing 10% FCS and 20 U/ml of rhIL-2 with various doses of whole FVIII or FVIII-BDD (10, 8, 6, 4, 2 μg/ml) for 20 hours at 37° C. Like the D9E9 cells, the LE2E9 and BO2C11 lines of B cells transformed by EBV were cultured in the presence of 10 μg/ml of whole FVIII or FVIII-BDD. The control conditions were maintained in the absence of FVIII, D9E9 or DCs. As a negative control, hrFIX (Benefix, Baxter) was incubated with the cells at isomolar concentrations of FVIII. The supernatants were harvested at the end of the incubation period and tested for their production of IFNγ using the human IFN-γ Duo Set (DY285, R&D Systems) in accordance with the manufacturer's instructions.

[3] = biological target: T1, binding of CTLD(4-7)-Fc to FVIII-BDD (UniProt P00451+Q61830, DEL763-1656); assay: ELISA: influence of VWF on binding of CTLD(4-7)-Fc to immobilized FVIII-BDD; settings: soluble VWF in a VWF:FVIII ratio excess; FIG. 9
T1 construct: CTLD(4-7)-Fc a gift of Dr L. Martinez-Pomares
T1 sequence (P00451 with tags, fused parts or gaps DEL763-1656 limits assumed): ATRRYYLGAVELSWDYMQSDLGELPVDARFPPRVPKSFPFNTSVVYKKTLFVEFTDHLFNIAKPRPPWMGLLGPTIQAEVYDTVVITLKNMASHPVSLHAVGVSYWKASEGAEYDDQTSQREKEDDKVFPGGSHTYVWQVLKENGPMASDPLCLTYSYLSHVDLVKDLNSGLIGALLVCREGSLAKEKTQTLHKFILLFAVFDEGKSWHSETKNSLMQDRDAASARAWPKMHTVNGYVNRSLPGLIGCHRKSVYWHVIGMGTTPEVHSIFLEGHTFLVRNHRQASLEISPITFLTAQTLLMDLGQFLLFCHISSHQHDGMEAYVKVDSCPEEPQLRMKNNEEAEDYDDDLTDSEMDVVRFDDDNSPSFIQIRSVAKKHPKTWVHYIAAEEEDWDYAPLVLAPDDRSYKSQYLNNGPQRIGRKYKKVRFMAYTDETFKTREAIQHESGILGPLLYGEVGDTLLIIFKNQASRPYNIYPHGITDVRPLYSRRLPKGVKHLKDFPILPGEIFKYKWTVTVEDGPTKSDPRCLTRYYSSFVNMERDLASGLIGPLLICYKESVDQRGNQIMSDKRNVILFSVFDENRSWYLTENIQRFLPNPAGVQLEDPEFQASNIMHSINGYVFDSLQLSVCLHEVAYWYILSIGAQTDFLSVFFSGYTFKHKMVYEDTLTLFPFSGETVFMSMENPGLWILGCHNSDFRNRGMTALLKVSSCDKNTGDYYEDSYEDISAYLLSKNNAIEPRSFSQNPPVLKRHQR
T1 sequence (P00451 1668-2351 limits assumed): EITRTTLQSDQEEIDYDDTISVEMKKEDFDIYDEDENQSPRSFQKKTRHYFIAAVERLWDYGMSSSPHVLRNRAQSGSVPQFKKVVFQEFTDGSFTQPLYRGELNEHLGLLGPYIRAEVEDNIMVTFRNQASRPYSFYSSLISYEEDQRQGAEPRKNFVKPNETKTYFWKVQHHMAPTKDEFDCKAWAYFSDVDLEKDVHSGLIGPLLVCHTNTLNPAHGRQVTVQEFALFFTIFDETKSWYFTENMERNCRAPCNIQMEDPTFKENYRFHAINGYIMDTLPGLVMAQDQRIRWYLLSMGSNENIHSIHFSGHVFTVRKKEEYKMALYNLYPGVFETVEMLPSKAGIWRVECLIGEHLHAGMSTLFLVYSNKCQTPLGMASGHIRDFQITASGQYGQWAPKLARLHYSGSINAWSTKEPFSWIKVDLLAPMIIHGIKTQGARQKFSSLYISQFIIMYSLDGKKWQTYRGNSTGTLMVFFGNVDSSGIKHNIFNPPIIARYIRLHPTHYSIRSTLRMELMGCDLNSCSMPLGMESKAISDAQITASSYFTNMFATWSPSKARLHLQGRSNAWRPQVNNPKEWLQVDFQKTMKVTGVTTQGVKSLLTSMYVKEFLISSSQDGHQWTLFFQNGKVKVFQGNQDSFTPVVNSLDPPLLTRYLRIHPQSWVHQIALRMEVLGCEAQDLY
T1 sequence (Q61830 20-1456): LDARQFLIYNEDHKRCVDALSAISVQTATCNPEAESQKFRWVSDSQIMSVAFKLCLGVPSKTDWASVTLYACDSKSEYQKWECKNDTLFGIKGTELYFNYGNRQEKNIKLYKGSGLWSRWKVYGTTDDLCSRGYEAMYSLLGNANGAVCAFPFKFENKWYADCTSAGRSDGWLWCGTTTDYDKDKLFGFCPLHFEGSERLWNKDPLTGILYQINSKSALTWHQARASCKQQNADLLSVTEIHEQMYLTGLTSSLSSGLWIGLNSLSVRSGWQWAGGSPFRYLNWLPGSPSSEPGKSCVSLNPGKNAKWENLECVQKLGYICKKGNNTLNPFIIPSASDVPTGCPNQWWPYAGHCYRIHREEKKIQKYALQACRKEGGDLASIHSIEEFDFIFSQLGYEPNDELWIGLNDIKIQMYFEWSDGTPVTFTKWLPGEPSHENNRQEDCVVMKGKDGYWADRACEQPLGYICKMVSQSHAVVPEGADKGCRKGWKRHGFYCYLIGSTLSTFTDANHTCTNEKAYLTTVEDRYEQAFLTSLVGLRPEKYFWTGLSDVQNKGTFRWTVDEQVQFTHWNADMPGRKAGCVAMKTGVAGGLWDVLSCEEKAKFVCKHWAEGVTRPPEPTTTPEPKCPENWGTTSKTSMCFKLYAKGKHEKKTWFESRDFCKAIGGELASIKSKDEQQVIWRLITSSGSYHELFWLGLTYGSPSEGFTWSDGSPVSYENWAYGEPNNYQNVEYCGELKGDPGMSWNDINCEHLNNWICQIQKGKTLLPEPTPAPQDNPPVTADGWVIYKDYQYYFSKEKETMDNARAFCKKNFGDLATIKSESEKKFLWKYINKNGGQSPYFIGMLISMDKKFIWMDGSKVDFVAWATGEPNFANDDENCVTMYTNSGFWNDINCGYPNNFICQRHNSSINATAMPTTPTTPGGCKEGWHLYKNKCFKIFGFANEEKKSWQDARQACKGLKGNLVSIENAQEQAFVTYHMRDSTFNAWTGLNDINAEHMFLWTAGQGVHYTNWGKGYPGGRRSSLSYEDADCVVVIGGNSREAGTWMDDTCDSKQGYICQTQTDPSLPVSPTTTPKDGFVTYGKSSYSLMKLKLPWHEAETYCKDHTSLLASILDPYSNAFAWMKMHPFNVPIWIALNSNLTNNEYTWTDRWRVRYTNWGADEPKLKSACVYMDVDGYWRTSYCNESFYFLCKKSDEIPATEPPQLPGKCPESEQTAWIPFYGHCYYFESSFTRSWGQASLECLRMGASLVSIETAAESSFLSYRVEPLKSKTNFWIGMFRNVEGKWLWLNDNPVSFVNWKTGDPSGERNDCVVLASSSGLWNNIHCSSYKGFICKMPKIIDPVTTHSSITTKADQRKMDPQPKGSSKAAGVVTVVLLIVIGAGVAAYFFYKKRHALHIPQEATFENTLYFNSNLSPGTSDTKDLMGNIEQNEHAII
Protocol: ELISA plates are coated with FVIII-BDD (5.56 μg/ml, 0.033 μM). VWF (0 to 1 μM) is incubated with 10 μg/ml of the construct CTLD(4-7)-Fc for 30 min at room temperature and added to immobilized FVIII-BDD.

[4] = cells preincubated with 5 mM EDTA

O=C[C@H](O)[C@@H](O)[C@@H](O)[C@H](O)CO [D-galactose, reference compound]
reduction of internalization of FVIII ([1]; D-galactose, independently of presence or absence of domain B): did not significantly reduce

O=C(O)CN(CCN(CC(=O)O)CC(=O)O)CC(=O)O [EDTA, reference compound]
inhibition of internalization of FVIII-BDD by immature DCs [1, 4]: 62.4±11.4% | inhibition of internalization of whole FVIII by immature DCs [1, 4]: 58.1±11.1%

FIX: hrFIX (Benefix, Baxter), negative control
activation of D9E9 cells [2]: absence of proliferation

VWF: von Willebrand factor (Willefectin, LFB)
inhibition of interaction of CTLD(4-7)-Fc with immobilized FVIII [3]: 43%

B1: RAP: receptor-associated protein of 38 kD, blocks endocytosis of ligands by LDL receptor family members such as CD91/LRP (protein, UniProt P30533 35-357, looked up)
Alpha-2-macroglobulin …: YSREKNQPKPSPKRESGEEFRMEKLNQLWEKAQRLHLPPVRLAELHADLKIQERDELAWKKLKLDGLDEDGEKEARLIRNLNVILAKYGLDGKKDARQVTSNSLSGTQEDGLDDPRLEKLWHKAKTSGKFSGEELDKLWREFLHHKEKVHEYNVLLETLSRTEEIHENVISPSDLSDIKGSVLHSRHTELKEKLRSINQGLDRLRRVSHQGYSTEAEFEEPRVIDLWDLAQSANLTDKELEAFREELKHFEAKIEKHNHYQKQLEIAHEKLRHAESVGDGERVSRSREKHALLEGRTKELGYTVKKHLQDLSGRISRARHNEL
prevention of endocytosis of FVIII by the DCs ([1]; excess of RAP): did not allow the endocytosis of FVIII by the DCs to be prevented | inhibition of internalization of α2M ([1]; excess of RAP or mannan, FIG. 2f): inhibited completely
